We go through 16 compounds from US7939546B2, “Quinoline derivatives for modulating DNA methylation” (SuperGen, Inc., priority 2007, dated 2011).

One series concerns CMV-EE210 cell line. The series can be described thus: Toxicity (TD50, cell viability) reported with the GFP assay. As to conditions: for TD50: Dose at which cells are >50% viable. As to the method: (§1) The demethylating activity of non-bis-quaternary 4-anilinoquinolines were tested in a cell-based GFP (green fluorescent protein) assay. This assay has a GFP gene regulated by the CMV promoter and is sensitive to the methylation of CpG sites within the promoter. A decrease in methylation resulting from exposure to a methylation inhibitor leads to GFP expression and is readily scored. Specifically, the CMV-EE210 cell line containing the epigenetically silenced GFP transgene was used to assay for reactivation of GFP expression by flow cytometry. CMV-EE210 was made by transfecting NIH 3T3 cells with the pTR-UF/UF1/UF2 plasmid (Zolotuhin et al., 1996), which is comprised of pBS(+) (Stratagene, Inc.) containing a cytomegalovirus (CMV) promoter driving a humanized GFP gene adapted for expression in mammalian cells. After transfection, high-level GFP expressing cells were initially selected by FACS analysis and sorting using a MoFlo cytometer (Cytomation, Inc.). […] To screen for reactivation of CMV-EE210, decitabine (at […]) or a test compound (at a concentration of 30-50 μM) was added to complete medium (phenol red free DMEM (Gibco, Life Technologies) supplemented with 10% fetal bovine serum (Hyclone)). Cells were then seeded to 30% confluence (˜5000 cell/well) in 96 well plate containing the test compounds and grown for three days in at 37° C. in 5% CO2. The plates were examined under a fluorescent microscope using a 450-490 excitation filter (13 filter cube, Leica, Deerfield Ill.). Wells were scored g1 positive if 10% of viable cells express GFP, g2 positive if 30% of viable cells express GFP and g3 if greater than 75% of the viable cells express GFP. GFP IC 50 is the concentration of an inhibitor that (like an IC50) is the dose at which the GFP expression level goes from g3 to g1/2.

Another series addresses DNMT1 (Homo sapiens, UniProt P26358). The series can be described thus: Selective depletion of DNMT1 by Western blot in treated HCT116 cells. On the set-up: Protein extracts (equivalent to 100 μg) were isolated from HCT116 cells; endogenous in cells; host or cells: HCT116. As to conditions: for % DNMT1 protein level remaining at 5 µM: HCT-116, 5 μM; for % DNMT1 protein level remaining at 10 µM: HCT-116, 10 μM; for % DNMT1 protein level remaining at 100 µM: HCT-116, 100 μM. The format is cell-based. From the text: Biol. 2005, 11, 4727-41.]. For DNMT1, commercially available antibodies from Santa Cruz or New England Biolabs were used.

Series [1] concerns CMV-EE210 cell line containing the epigenetically silenced GFP transgene. In words: Cell-based GFP assay for demethylating activity (reactivation of silenced GFP transgene). As to the method:
as §1

Where a name gives a salt, the structure may show the parent alone.

Sequence of DNMT1 (P26358 whole entry): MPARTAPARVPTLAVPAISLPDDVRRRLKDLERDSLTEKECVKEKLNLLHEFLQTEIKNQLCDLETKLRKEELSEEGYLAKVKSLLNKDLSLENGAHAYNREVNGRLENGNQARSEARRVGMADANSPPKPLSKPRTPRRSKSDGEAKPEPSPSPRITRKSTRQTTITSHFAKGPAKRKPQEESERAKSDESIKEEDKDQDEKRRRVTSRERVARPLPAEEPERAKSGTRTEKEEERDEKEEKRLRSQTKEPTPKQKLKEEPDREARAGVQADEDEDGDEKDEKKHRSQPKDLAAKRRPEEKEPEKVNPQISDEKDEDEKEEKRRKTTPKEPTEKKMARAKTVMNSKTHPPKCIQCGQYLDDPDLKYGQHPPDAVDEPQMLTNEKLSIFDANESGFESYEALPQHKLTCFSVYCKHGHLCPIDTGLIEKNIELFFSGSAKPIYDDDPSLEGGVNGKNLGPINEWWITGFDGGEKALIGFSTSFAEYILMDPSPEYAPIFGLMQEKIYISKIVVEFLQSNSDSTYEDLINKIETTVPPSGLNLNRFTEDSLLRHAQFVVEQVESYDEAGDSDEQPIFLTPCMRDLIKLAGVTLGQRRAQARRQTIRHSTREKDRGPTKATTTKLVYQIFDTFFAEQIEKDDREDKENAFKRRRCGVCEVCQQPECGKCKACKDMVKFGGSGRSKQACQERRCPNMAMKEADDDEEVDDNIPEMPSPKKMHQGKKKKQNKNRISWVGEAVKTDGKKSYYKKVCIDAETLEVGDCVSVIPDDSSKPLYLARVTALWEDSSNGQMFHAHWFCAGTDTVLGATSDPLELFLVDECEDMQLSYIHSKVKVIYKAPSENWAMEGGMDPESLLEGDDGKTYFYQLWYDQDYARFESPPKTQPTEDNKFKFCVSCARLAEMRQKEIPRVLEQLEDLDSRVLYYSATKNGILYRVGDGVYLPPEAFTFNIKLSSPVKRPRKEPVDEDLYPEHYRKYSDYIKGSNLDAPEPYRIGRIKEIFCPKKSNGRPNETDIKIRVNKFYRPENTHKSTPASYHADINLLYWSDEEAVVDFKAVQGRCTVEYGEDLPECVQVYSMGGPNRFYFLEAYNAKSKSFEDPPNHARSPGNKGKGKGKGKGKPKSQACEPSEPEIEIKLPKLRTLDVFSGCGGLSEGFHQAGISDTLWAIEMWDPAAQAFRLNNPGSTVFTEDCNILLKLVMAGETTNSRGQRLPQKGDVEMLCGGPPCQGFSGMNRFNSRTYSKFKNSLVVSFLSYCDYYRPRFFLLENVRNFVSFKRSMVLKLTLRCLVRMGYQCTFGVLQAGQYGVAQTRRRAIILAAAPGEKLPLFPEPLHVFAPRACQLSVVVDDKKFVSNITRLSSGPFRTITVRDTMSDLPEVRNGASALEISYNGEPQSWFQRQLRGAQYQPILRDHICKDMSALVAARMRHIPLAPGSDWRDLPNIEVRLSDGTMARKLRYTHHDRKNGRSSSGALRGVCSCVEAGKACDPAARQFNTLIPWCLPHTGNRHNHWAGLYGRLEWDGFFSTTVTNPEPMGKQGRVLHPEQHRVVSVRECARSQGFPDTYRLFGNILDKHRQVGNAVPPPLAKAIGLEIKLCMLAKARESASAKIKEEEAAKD

In turn, “1-methyl-4-[4-(4-{7-nitroquinolin-4-ylamino}benzamido)-phenylamino]pyridinium dichloride [Cpd. S]” showed a TD50 in the series on CMV-EE210 cell line of 25 µM. Also, the “% DNMT1 Level” value on DNMT1 (5 μM) is reported as 87%; at DNMT1 (10 μM) it was 101%; at DNMT1 (100 μM) it was 69%.
`C[n+]1ccc(Nc2cccc(NC(=O)c3ccc(Nc4ccnc5ccccc45)cc3)c2)cc1` [Cpd. A, 1-methyl-4-(3-{[4-(4-quinolinylamino)benzoyl]amino}anilino)pyridinium chloride]: in the series on CMV-EE210 cell line, the TD50 turned out to be 12.5 µM. Further, at DNMT1, the % DNMT1 protein level remaining at 5 µM was determined as 99%, the % DNMT1 protein level remaining at 10 µM was determined as 117% and the % DNMT1 protein level remaining at 100 µM stood at 119%.
As for `CN(C)c1ccc2c(Nc3ccc(C(=O)Nc4ccc(Nc5cc[n+](C)cc5)cc4)cc3)ccnc2c1.Cl.[Cl-]` [Cpd. AA], the “GFP Expression Level” value in series [1] (test compound 30-50 μM, decitabine at 11 M (so in the source), three days) is reported as “g2 (g2 positive if 30% of viable cells express GFP)”. In the series with CMV-EE210 cell line, this compound had a TD50 of 25 µM. Also, the “% DNMT1 Level” value at DNMT1 (5 μM) is recorded as 136%; on DNMT1 (10 μM), 101%; at DNMT1 (100 μM), 32%.
As to `C[n+]1ccc(Nc2ccc(NC(=O)c3ccc(Nc4ccnc5ccccc45)cc3)cc2)cc1` [Cpd. B, 1-methyl-4-(4-(4-(quinolin-4-ylamino)benzamido)phenylamino)pyridinium chloride hydrochloride], the TD50 in the series on CMV-EE210 cell line is 25 µM. Besides, on DNMT1, the % DNMT1 protein level remaining at 5 µM stood at 102%, the % DNMT1 protein level remaining at 10 µM worked out at 98% and the % DNMT1 protein level remaining at 100 µM was 81%.
In the case of `Cc1cc(Nc2ccc(NC(=O)c3ccc(Nc4ccnc5cc(N(C)C)ccc45)cc3)cc2)nc(N)n1` [Cpd. BB, N-[4-(2-amino-6-methylpyrimidin-4-ylamino)phenyl]-4-(7-(dimethylamino)quinolin-4-ylamino)benzamide hydrochloride], the 50% inhibitory concentration (IC50) in series [1] (read-out: GFP IC50) turned out to be 100 µM. Moreover, in the series on CMV-EE210 cell line, the “toxicity relative to decitabine” value is reported as “less than one-half as toxic as decitabine” and the TD50 amounted to 25 µM. At DNMT1, the % DNMT1 protein level remaining at 5 µM was 106%, the % DNMT1 protein level remaining at 10 µM is 76% and the % DNMT1 protein level remaining at 100 µM stood at 32%.
On to `CN(C)c1ccc2c(Nc3ccc(NC(=O)c4ccc(Nc5cc[n+](C)cc5)cc4)cc3)ccnc2c1.Cl.[Cl-]` [Cpd. DD, 7-(dimethylamino)-4-[4-({4-[(1-methyl-4-pyridiniumyl)amino]benzoyl}amino)aniline]quinolinium dichloride], for which the TD50 in the series with CMV-EE210 cell line was determined as 25 µM. Besides, the “% DNMT1 Level” value was found to be 90% at DNMT1 (5 μM), 74% at DNMT1 (10 μM) and 52% at DNMT1 (100 μM).
Turning to `C[n+]1ccc(Nc2cccc(NC(=O)c3ccc(Nc4ccnc5ccc([N+](=O)[O-])cc45)cc3)c2)cc1` [Cpd. F, 1-methyl-4-(3-{[4-(6-nitro-4-quinolinylamino)benzoyl]amino}anilino)pyridinium chloride], the TD50 in the series on CMV-EE210 cell line was found to be 25 µM. For the same compound, on DNMT1, the % DNMT1 protein level remaining at 5 µM was 145%, the % DNMT1 protein level remaining at 10 µM was found to be 210% and the % DNMT1 protein level remaining at 100 µM amounted to 155%.
On to `Cc1cc(Nc2ccc(NC(=O)c3ccc(Nc4ccnc5ccc([N+](=O)[O-])cc45)cc3)cc2)nc(N)n1` [Cpd. H, N-(4-(2-amino-6-methylpyrimidin-4-ylamino)phenyl)-4-(6-nitroquinolin-4-ylamino)benzamide hydrochloride], for which the TD50 with CMV-EE210 cell line amounted to 12.5 µM. Moreover, on DNMT1, the % DNMT1 protein level remaining at 5 µM worked out at 132%, the % DNMT1 protein level remaining at 10 µM came out at 25% and the % DNMT1 protein level remaining at 100 µM came to 24%.
Consider `C/C(=N\N=C(N)N)c1ccc(NC(=O)c2ccc(Nc3ccnc4ccc([N+](=O)[O-])cc34)cc2)cc1` [Cpd. I, (E)-N-[4-{1-([diaminomethylene]hydrazono)ethyl}phenyl]-4-(6-nitroquinolin-4-ylamino)benzamide hydrochloride], for which, in the series with CMV-EE210 cell line, the TD50 is 25 µM. Besides, at DNMT1, the % DNMT1 protein level remaining at 5 µM turned out to be 27%, the % DNMT1 protein level remaining at 10 µM came to 80% and the % DNMT1 protein level remaining at 100 µM turned out to be 48%.
Compound `C[n+]1ccc(Nc2cccc(C(=O)Nc3ccc(Nc4ccnc5ccc([N+](=O)[O-])cc45)cc3)c2)cc1` [Cpd. J, 4-[4-({3-[(1-methyl-4-pyridiniumyl)amino]benzoyl}amino)anilino]-6-nitroquinolinium dichloride] gave a melting point greater than 300 °C. Also, the TD50 with CMV-EE210 cell line turned out to be 12.5 µM. Moreover, on DNMT1, the % DNMT1 protein level remaining at 5 µM was determined as 101%, the % DNMT1 protein level remaining at 10 µM was 89% and the % DNMT1 protein level remaining at 100 µM is 59%.
As to `C[n+]1ccc(Nc2cccc(NC(=O)c3ccc(Nc4ccnc5ccc(N)cc45)cc3)c2)cc1` [Cpd. K, 4-[3-({4-[(6-ammonio-4-quinolinyl)amino]benzoyl}amino)anilino]-1-methylpyridinium dichloride], the melting point was 270 to 274 °C. The compound further gave a TD50 with CMV-EE210 cell line of 12.5 µM. Besides, at DNMT1, the % DNMT1 protein level remaining at 5 µM came to 98%, the % DNMT1 protein level remaining at 10 µM worked out at 92% and the % DNMT1 protein level remaining at 100 µM turned out to be 37%.
In turn, `C[n+]1ccc(Nc2cccc(C(=O)Nc3ccc(Nc4ccnc5ccc(N)cc45)cc3)c2)cc1` [Cpd. M, 6-amino-4-[4-({3-[(1-methyl-4-pyridiniumyl)amino]benzoyl}amino)anilino]quinolinium dichloride] had a melting point greater than 310 °C. The compound also returned a TD50 in the series with CMV-EE210 cell line of 25 µM. Further, at DNMT1, the % DNMT1 protein level remaining at 5 µM turned out to be 30%, the % DNMT1 protein level remaining at 10 µM turned out to be 40% and the % DNMT1 protein level remaining at 100 µM was found to be 43%.
In the series on CMV-EE210 cell line, `C[n+]1ccc(Nc2cccc(NC(=O)c3ccc(Nc4ccnc5cc([N+](=O)[O-])ccc45)cc3)c2)cc1` [Cpd. R, 1-methyl-4-[3-({4-[(7-nitro-4-quinolinyl)amino]benzoyl}amino)anilino]pyridinium chloride] registered a TD50 of 25 µM. At DNMT1, the % DNMT1 protein level remaining at 5 µM amounted to 160%, the % DNMT1 protein level remaining at 10 µM is 170% and the % DNMT1 protein level remaining at 100 µM was 165%.
The compound `C[n+]1ccc(Nc2cccc(C(=O)Nc3ccc(Nc4ccnc5cc([N+](=O)[O-])ccc45)cc3)c2)cc1.Cl.[Cl-]` [Cpd. T, 4-[4-({3-[(1-methyl-4-pyridiniumyl)amino]benzoyl}amino)anilino]-7-nitroquinolinium dichloride] displayed a TD50 in the series with CMV-EE210 cell line of 25 µM. Also, the “% DNMT1 Level” value on DNMT1 (5 μM) was found to be 64%; at DNMT1 (10 μM) it was 69%; on DNMT1 (100 μM), 85%.
Compound `C[n+]1ccc(Nc2ccc(C(=O)Nc3ccc(Nc4ccnc5cc([N+](=O)[O-])ccc45)cc3)cc2)cc1.Cl.[Cl-]` [Cpd. U, 4-[4-({4-[(1-methyl-4-pyridiniumyl)amino]benzoyl}amino)anilino]-7-nitroquinolinium dichloride] showed a TD50 in the series on CMV-EE210 cell line of 25 µM. Further, the “% DNMT1 Level” value was found to be 97% at DNMT1 (5 μM), 53% at DNMT1 (10 μM) and 32% at DNMT1 (100 μM).
Take `C[n+]1ccc(Nc2cccc(NC(=O)c3ccc(Nc4ccnc5cc(N)ccc45)cc3)c2)cc1` [Cpd. V, 4-[3-({4-[(7-ammonio-4-quinolinyl)amino]benzoyl}amino)anilino]-1-methylpyridinium dichloride]: the melting point was 281 to 285 °C. The compound further yielded a TD50 with CMV-EE210 cell line of 12.5 µM. Further, at DNMT1, the % DNMT1 protein level remaining at 5 µM is 112%, the % DNMT1 protein level remaining at 10 µM came to 110% and the % DNMT1 protein level remaining at 100 µM worked out at 124%.

One may read the IC50 as the concentration that inhibits the measured activity by half. As a reminder, the melting point is the temperature of the solid-liquid transition.
